Reference: patent publication US12172983B2, “EGFR inhibitors” (Blueprint Medicines Corporation, priority 2019, dated 2024)
Like-named read-outs stand apart in the source and are kept apart here.

Columns and labels:
EGFR (L858R T790M C797S) = target: T1, EGFR (L858R T790M C797S) (Homo sapiens, UniProt P00533, C797S/L858R/T790M); assay: Biochemical EGFR inhibition assay (Caliper mobility shift), EGFR LRTMCS mutant; conditions: inhibitory activity against EGFR LRTMCS mutant; apparent IC50; read-out: Ext Enz LRTMCS
T1 construct: purchased SignalChem E10-122VG
Procedure: Reactions proceeded until between 10% to 20% total peptides were phosphorylated at room temperature (25° C.) and were terminated with 35 mM 2,2′,2″,2′″-(ethane-1,2-diyldinitrilo)tetraacetic acid (EDTA). Product was detected using the Caliper mobility shift detection method where the phosphorylated peptide (product) and substrate were electrophoretically separated and measured. Percent activity was plotted against log concentration of compound and points to generate an apparent IC50.

[1] = tested on: phosphorylation of EGFR (Tyr1068) in NCI-H1975 cell line that harbors the EGFR L858R T790M mutations; assay: NCI-H1975 pEGFR AlphaLISA assay; format: cell-based; conditions: 4-5 hours incubation, read-out: Ext pEGFR H1975
Procedure: Inhibitory effects of the compounds of the disclosure were evaluated in cellular assays that measure level of intracellular phosphorylation of EGFR in NCI-H1975 cell line that harbors the EGFR L858R T790M mutations (ATCC, CRL-5908) using AlphaLISA sureFire ultra p-EGFR (Tyr1068) assay kit (PerkinElmer, ALSU-PEGFR-A50K). The NCI-H1975 cells were seeded at 12.5K/well in 22 μL into 384 well opti plate (PerkinElmer, 6007299) and adhering overnight at 37 C/5% CO2. On the next day, the test compounds and DMSO control were added into H1975 cell plate followed by incubation at 37 C/5% CO2 for 4-5 hours. The cells were then spin down in the 384-well plate and lysed with 10 μL of 1×AlphaLISA lysis buffer followed by shaking at 600 rpm for 10 minutes at room temperature. After that, 5 μL of an acceptor bead mix was added to each well followed by incubation at room temperature for 1.5-2 h in dark. Then 5 μL of a donor bead mix was added to each well followed by overnight incubation at room temperature in dark. On the next day, the plate was read at a compatible plate reader to obtain pEGFR signal. Percent of pEGFR inhibition was plotted against log concentration of compounds to generate IC50 values.

[2] = Homo sapiens, NCI-H1975, inhibition of phosphorylation of mutant EGFR in NCI-H1975 cells
[3] = inhibition of phosphorylation of mutant EGFR in NCI-H1975 cells

T1 sequence (P00533 25-1210 T790M/C797S/L858R): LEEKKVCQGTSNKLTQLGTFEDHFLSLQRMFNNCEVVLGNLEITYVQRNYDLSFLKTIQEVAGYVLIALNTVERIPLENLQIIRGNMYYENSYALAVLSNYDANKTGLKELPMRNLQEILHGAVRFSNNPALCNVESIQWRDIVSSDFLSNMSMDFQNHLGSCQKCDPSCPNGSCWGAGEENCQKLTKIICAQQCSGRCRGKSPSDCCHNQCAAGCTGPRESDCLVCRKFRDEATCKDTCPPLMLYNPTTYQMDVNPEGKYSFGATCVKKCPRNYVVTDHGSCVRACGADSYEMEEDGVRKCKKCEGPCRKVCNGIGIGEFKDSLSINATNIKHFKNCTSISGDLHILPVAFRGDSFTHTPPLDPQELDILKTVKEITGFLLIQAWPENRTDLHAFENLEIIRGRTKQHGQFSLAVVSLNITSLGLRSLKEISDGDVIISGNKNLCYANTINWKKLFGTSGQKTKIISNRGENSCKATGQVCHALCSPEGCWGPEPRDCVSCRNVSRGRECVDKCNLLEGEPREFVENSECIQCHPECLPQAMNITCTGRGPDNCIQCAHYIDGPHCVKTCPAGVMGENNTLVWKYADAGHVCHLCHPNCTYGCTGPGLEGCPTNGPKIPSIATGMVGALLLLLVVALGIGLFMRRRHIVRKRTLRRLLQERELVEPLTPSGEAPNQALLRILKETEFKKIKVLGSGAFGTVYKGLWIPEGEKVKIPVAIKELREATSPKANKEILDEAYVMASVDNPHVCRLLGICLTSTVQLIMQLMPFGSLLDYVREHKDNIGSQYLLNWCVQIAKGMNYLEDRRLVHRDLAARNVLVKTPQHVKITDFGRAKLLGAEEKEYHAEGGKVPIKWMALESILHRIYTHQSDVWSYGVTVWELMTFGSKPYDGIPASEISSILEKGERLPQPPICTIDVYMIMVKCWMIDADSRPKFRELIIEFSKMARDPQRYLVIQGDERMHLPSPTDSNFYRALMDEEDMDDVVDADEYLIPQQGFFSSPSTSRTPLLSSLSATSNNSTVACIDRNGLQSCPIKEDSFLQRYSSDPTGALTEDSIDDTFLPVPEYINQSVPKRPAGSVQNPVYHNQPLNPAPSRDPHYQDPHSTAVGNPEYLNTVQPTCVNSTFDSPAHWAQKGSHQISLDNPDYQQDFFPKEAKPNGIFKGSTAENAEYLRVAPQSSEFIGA

Row | Structure (SMILES) | IC50 (EGFR (L858R T790M C797S)) [nM] | IC50 [1, 2] [nM] | IC50 [1, 3] [nM]
1 | CC(C)c1ccc(N2CC(CS(C)(=O)=O)C2)c2cnc(Nc3ccnc(N4CC5COC(C5)C4)n3)cc12 (racemic) [Compound 13, (rac)-8-[3-(methanesulfonylmethyl)azetidin-1-yl]-N-{2-[6-oxa-3-azabicyclo[3.2.1]octan-3-yl]pyrimidin-4-yl}-5-(propan-2-yl)isoquinolin-3-amine] | ≤ 15 | 30.1 to 50 | 
2 | CC(C)c1ccc(N2CC(CS(C)(=O)=O)C2)c2cnc(Nc3ccnc(N4CCCC(O)CC4)n3)cc12 (racemic) [Compound 21, (rac)-1-[4-({8-[3-(methanesulfonylmethyl)azetidin-1-yl]-5-(propan-2-yl)isoquinolin-3-yl}amino)pyrimidin-2-yl]azepan-4-ol] | 20.1 to 30 | 30.1 to 50 | 
3 | CO[C@@H]1[C@H](F)CN(c2nccc(Nc3cc4c(C(C)C)ccc(N5CC(CS(C)(=O)=O)C5)c4cn3)n2)C[C@@H]1O (racemic) [Compound 146, (3S,4S,5R)-5-fluoro-1-(4-((5-isopropyl-8-(3-((methylsulfonyl)methyl)azetidin-1-yl)isoquinolin-3-yl)amino)pyrimidin-2-yl)-4-methoxypiperidin-3-ol and (3R,4R,5S)-5-fluoro-1-(4-((5-isopropyl-8-(3-((methylsulfonyl)methyl)azetidin-1-yl)isoquinolin-3-yl)amino)pyrimidin-2-yl)-4-methoxypiperidin-3-ol] | 15.1 to 20 | 10.1 to 20 | 
4 | CO[C@H]1CN(c2nccc(Nc3cc4c(C(C)C)ccc(N5CC(CS(C)(=O)=O)C5)c4cn3)n2)C[C@@H](F)[C@H]1O (racemic) [Compound 147, (3S,4R,5R)-3-fluoro-1-(4-((5-isopropyl-8-(3-((methylsulfonyl)methyl)azetidin-1-yl)isoquinolin-3-yl)amino)pyrimidin-2-yl)-5-methoxypiperidin-4-ol and (3R,4S,5S)-3-fluoro-1-(4-((5-isopropyl-8-(3-((methylsulfonyl)methyl)azetidin-1-yl)isoquinolin-3-yl)amino)pyrimidin-2-yl)-5-methoxypiperidin-4-ol] | ≤ 15 | 10.1 to 20 | 
5 | CO[C@@H]1[C@H](F)CN(c2nccc(Nc3cc4c(C(C)C)ccc(N5C[C@H](CS(C)(=O)=O)[C@H]5C)c4cn3)n2)C[C@@H]1O (racemic) [Compound 198, (3R,4R,5S)-5-fluoro-1-(4-((5-isopropyl-8-((2R,3S)-2-methyl-3-((methylsulfonyl)methyl)azetidin-1-yl)isoquinolin-3-yl)amino)pyrimidin-2-yl)-4-methoxypiperidin-3-ol and (3S,4S,5R)-5-fluoro-1-(4-((5-isopropyl-8-((2R,3S)-2-methyl-3-((methylsulfonyl)methyl)azetidin-1-yl)isoquinolin-3-yl)amino)pyrimidin-2-yl)-4-methoxypiperidin-3-ol] | 15.1 to 20 | ≤ 10 | 
6 | CO[C@H]1CN(c2nccc(Nc3cc4c(C(C)C)ccc(N5C[C@H](CS(C)(=O)=O)[C@H]5C)c4cn3)n2)C[C@@H](F)[C@H]1O (racemic) [Compound 200, (3R,4S,5S)-3-fluoro-1-(4-((5-isopropyl-8-((2R,3S)-2-methyl-3-((methylsulfonyl)methyl)azetidin-1-yl)isoquinolin-3-yl)amino)pyrimidin-2-yl)-5-methoxypiperidin-4-ol and (3S,4R,5R)-3-fluoro-1-(4-((5-isopropyl-8-((2R,3S)-2-methyl-3-((methylsulfonyl)methyl)azetidin-1-yl)isoquinolin-3-yl)amino)pyrimidin-2-yl)-5-methoxypiperidin-4-ol] | 15.1 to 20 | ≤ 10 | 
7 | CC(C)c1ccc(N2CC(CS(C)(=O)=O)C2)c2cnc(Nc3ccnc(N4CC[C@H](O)[C@@](C)(F)C4)n3)cc12 (single isomer, unassigned) [Compound 61, (3S,4S)-3-fluoro-1-[4-({8-[3-(methanesulfonylmethyl)azetidin-1-yl]-5-(propan-2-yl)isoquinolin-3-yl}amino)pyrimidin-2-yl]-3-methylpiperidin-4-ol or (3R,4R)-3-fluoro-1-[4-({8-[3-(methanesulfonylmethyl)azetidin-1-yl]-5-(propan-2-yl)isoquinolin-3-yl}amino)pyrimidin-2-yl]-3-methylpiperidin-4-ol] |  | 30.1 to 50 | 
8 | CC(C)c1cnc(N2CC(CS(C)(=O)=O)C2)c2cnc(Nc3ccnc(N4CC[C@@H](O)[C@@](C)(F)C4)n3)cc12 (single isomer, unassigned) [Compound 67] |  | ≤ 10 | 
9 | CC(C)c1ccc(N2C[C@H](CS(C)(=O)=O)[C@H]2C)c2cnc(Nc3ccnc(N4CC[C@H](O)[C@@](C)(F)C4)n3)cc12 (single isomer, unassigned) [Compound 119, (3S,4S)-3-fluoro-1-[4-({8-[(2R,3S)-3-(methanesulfonylmethyl)-2-methylazetidin-1-yl]-5-(propan-2-yl)isoquinolin-3-yl}amino)pyrimidin-2-yl]-3-methylpiperidin-4-ol or (3R,4R)-3-fluoro-1-[4-({8-[(2R,3S)-3-(methanesulfonylmethyl)-2-methylazetidin-1-yl]-5-(propan-2-yl)isoquinolin-3-yl}amino)pyrimidin-2-yl]-3-methylpiperidin-4-ol] |  | 20.1 to 30 | 
10 | CC(C)c1ccc(N2C[C@H](CS(C)(=O)=O)[C@H]2C)c2cnc(Nc3ccnc(N4CC[C@H](O)[C@@](C)(F)C4)n3)cc12 (single isomer, unassigned) [Compound 120, (3R,4R)-3-fluoro-1-[4-({8-[(2R,3S)-3-(methanesulfonylmethyl)-2-methylazetidin-1-yl]-5-(propan-2-yl)isoquinolin-3-yl}amino)pyrimidin-2-yl]-3-methylpiperidin-4-ol or (3S,4S)-3-fluoro-1-[4-({8-[(2R,3S)-3-(methanesulfonylmethyl)-2-methylazetidin-1-yl]-5-(propan-2-yl)isoquinolin-3-yl}amino)pyrimidin-2-yl]-3-methylpiperidin-4-ol] |  |  | 10.1 to 20
11 | CO[C@@H]1CCN(c2nccc(Nc3cc4c(C(C)C)ccc(N5C[C@H](CS(C)(=O)=O)[C@H]5C)c4cn3)n2)C[C@H]1F (single isomer, unassigned) [Compound 278, N-{2-[(3R,4R)-3-fluoro-4-methoxypiperidin-1-yl]pyrimidin-4-yl}-8-[(2R,3S)-3-(methanesulfonylmethyl)-2-methylazetidin-1-yl]-5-(propan-2-yl)isoquinolin-3-amine or N-{2-[(3S,4S)-3-fluoro-4-methoxypiperidin-1-yl]pyrimidin-4-yl}-8-[(2R,3S)-3-(methanesulfonylmethyl)-2-methylazetidin-1-yl]-5-(propan-2-yl)isoquinolin-3-amine] |  | 20.1 to 30 | 
12 | CO[C@@H]1CCN(c2nccc(Nc3cc4c(C(C)C)ccc(N5C[C@H](CS(C)(=O)=O)[C@H]5C)c4cn3)n2)C[C@H]1F (single isomer, unassigned) [Compound 279, N-{2-[(3S,4S)-3-fluoro-4-methoxypiperidin-1-yl]pyrimidin-4-yl}-8-[(2R,3S)-3-(methanesulfonylmethyl)-2-methylazetidin-1-yl]-5-(propan-2-yl)isoquinolin-3-amine or N-{2-[(3R,4R)-3-fluoro-4-methoxypiperidin-1-yl]pyrimidin-4-yl}-8-[(2R,3S)-3-(methanesulfonylmethyl)-2-methylazetidin-1-yl]-5-(propan-2-yl)isoquinolin-3-amine] |  |  | 20.1 to 30
13 | CO[C@@H]1CCN(c2nccc(Nc3cc4c(C(C)C)ccc(N5C[C@H](CS(C)(=O)=O)[C@H]5C)c4cn3)n2)C[C@@H]1F [Compound 122, N-(2-((3S,4R)-3-fluoro-4-methoxypiperidin-1-yl)pyrimidin-4-yl)-5-isopropyl-8-((2R,3S)-2-methyl-3-((methylsulfonyl)methyl)azetidin-1-yl)isoquinolin-3-amine] |  | ≤ 10 | 
14 | CO[C@H]1CCN(c2nccc(Nc3cc4c(C(C)C)ccc(N5C[C@H](CS(C)(=O)=O)[C@H]5C)c4cn3)n2)C[C@H]1F [Compound 123, N-(2-((3R,4S)-3-fluoro-4-methoxypiperidin-1-yl)pyrimidin-4-yl)-5-isopropyl-8-((2R,3S)-2-methyl-3-((methylsulfonyl)methyl)azetidin-1-yl)isoquinolin-3-amine] |  | ≤ 10 | 
15 | CO[C@H]1CCN(c2nccc(Nc3cc4c(C(C)(C)N)ccc(N5C[C@H](CS(C)(=O)=O)[C@H]5C)c4cn3)n2)C[C@H]1F [Compound 312, 5-(2-aminopropan-2-yl)-N-(2-((3R,4S)-3-fluoro-4-methoxypiperidin-1-yl)pyrimidin-4-yl)-8-((2R,3S)-2-methyl-3-((methylsulfonyl)methyl)azetidin-1-yl)isoquinolin-3-amine] | ≤ 15 |  | 
